Calls of active or inactive are those of the source. The rule behind the calls is not given here. Some results are limits rather than exact numbers.

Results on three molecules are retold here after ChEMBL document CHEMBL6134843, “HDAC11 Inhibition as a Potential Therapeutic Strategy for AML: Target Identification, Lead Discovery, Antitumor Potency, and Mechanism Investigation” (J Med Chem, 2025).

One test relates to OCI-AML-3. The experiment in a line: Induction of cell apoptosis in human OCI-AML-3 cells at 100 uM incubated for 48 hrs by Annexin V/DAPI staining based flow cytometry analysis. The test is classed as functional. For orientation: In flow cytometry, cells or beads pass a laser one at a time.
For test [1], the system named is U-937. The experiment in a line: Induction of ferroptosis in human U-937 cells assessed as increase in ferrous ion accumulation at 100 uM incubated for 48 hrs by RhoNox-1 staining based flow cytometry analysis. The test is classed as functional, cell-based.
The target of test [2] is T1, Protein deacetylase HDAC6 (Homo sapiens, UniProt Q9UBN7).
T1 sequence (Q9UBN7 whole entry): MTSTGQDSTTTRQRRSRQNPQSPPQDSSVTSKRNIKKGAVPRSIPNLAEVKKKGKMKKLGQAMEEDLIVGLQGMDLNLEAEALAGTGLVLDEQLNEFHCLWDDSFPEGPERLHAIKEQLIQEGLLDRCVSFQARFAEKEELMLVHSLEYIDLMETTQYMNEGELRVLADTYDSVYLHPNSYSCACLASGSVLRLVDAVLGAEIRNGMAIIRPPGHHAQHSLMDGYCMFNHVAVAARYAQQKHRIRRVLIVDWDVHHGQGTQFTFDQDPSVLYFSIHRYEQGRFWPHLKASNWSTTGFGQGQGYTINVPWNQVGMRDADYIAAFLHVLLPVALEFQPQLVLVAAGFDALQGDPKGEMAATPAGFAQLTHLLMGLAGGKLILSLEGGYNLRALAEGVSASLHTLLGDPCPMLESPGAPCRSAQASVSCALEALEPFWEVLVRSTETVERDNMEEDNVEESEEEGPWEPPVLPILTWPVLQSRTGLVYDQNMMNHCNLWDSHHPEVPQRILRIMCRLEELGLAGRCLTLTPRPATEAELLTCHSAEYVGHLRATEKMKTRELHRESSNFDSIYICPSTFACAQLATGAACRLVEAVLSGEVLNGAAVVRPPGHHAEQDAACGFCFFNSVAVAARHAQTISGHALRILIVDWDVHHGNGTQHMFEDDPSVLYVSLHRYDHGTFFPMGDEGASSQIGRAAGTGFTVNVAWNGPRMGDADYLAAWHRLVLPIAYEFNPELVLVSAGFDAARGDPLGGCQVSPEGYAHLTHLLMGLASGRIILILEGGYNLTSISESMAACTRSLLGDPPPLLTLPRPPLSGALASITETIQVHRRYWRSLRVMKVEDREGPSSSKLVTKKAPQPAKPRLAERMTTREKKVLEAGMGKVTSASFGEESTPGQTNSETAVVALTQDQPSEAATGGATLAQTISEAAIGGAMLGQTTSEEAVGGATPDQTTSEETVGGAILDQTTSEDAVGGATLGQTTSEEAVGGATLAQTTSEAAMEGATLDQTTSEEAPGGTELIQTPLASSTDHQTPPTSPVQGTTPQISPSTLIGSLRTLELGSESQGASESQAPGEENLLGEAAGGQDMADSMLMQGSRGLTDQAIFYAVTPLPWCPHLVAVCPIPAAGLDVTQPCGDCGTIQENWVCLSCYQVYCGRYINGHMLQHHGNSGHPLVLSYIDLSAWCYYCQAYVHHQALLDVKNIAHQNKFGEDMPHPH
The experiment in a line: Inhibition of N-terminal GST-tagged full length human recombinant HDAC6 (1 to 1215 end residues) expressed in Sf9 cells using Boc-Lys-(acetyl)-AMC as substrate preincubated with enzyme for 1 hr followed by substrate addition and measured after 30 mins by fluorescence analysis.

The subject of test [3] is OCI-AML2. The experiment in a line: Antiproliferative activity against human OCI-AML2 cells assessed as cell growth inhibition incubated for 2 days by CCK-8 assay. Particulars: OCI-AML2, 48 h.
Test [4] deals with OCI-AML2. The experiment in a line: Induction of ferroptosis in human OCI-AML2 cells assessed as increase in ferrous ion accumulation at 5 uM incubated for 48 hrs by RhoNox-1 staining based flow cytometry analysis. The test is classed as functional, cell-based.
Another test deals with T2, Histone deacetylase 11 (Homo sapiens, UniProt Q96DB2).
T2 sequence (Q96DB2 whole entry): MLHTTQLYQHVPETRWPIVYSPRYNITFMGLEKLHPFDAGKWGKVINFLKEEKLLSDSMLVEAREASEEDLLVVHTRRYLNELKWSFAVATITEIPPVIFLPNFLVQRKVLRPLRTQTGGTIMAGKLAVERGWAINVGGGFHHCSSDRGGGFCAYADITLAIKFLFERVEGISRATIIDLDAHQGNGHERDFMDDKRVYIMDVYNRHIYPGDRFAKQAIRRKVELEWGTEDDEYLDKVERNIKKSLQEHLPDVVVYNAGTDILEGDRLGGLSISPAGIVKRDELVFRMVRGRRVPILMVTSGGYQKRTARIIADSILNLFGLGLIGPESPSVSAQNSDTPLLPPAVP
The experiment in a line: Inhibition of full length human recombinant HDAC11 (1 to 347 end residues) expressed in Sf9 cells using AcetylETDKmyr-AMC as substrate preincubated with enzyme for 1 hr followed by substrate addition and measured after 30 mins by fluorescence analysis.

Test [5] relates to OCI-AML2. The test is described as follows: Induction of ferroptosis in human OCI-AML2 cells assessed as increase in ferrous ion accumulation at 100 uM incubated for 48 hrs by RhoNox-1 staining based flow cytometry analysis. The test is classed as functional, cell-based.
Test [6] deals with U-937. The test is described as follows: Induction of ferroptosis in human U-937 cells assessed as increase in ferrous ion accumulation at 5 uM incubated for 48 hrs by RhoNox-1 staining based flow cytometry analysis. The class given is functional, cell-based.
Test [7] has as its system U-937. The test is described as follows: Antitumor activity against human U-937 cells assessed as cell growth inhibition incubated for 2 days by CCK-8 assay. The following applies: U-937, 48 h. In general terms: Tetrazolium assays rely on reduction of a dye to a coloured formazan, in cell work by metabolically active cells.
In a further test the target is T3, Histone deacetylase 8 (Homo sapiens, UniProt Q9BY41).
T3 sequence (Q9BY41 whole entry): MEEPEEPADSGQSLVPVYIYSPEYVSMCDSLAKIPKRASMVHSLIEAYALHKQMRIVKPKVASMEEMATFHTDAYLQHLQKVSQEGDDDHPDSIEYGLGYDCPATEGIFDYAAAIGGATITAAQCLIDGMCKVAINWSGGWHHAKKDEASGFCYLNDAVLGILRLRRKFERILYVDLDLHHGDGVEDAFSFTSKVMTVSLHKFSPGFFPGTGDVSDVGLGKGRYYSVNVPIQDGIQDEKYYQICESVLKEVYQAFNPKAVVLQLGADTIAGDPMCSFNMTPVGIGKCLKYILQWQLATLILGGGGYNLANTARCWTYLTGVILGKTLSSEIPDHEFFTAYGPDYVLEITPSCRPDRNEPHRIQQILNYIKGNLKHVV
The test is described as follows: Inhibition of C-terminal His-tagged full length human recombinant HDAC8 (1 to 377 end residues) expressed in Sf9 cells using Boc-Lys-(trifluoroacetyl)-AMC as substrate preincubated with enzyme for 1 hr followed by substrate addition and measured after 30 mins by fluorescence analysis.

The subject of a further test is THP-1. The test is described as follows: Induction of cell apoptosis in human THP-1 cells at 100 uM incubated for 48 hrs by Annexin V/DAPI staining based flow cytometry analysis. The class given is functional.
In test [8] the target is T4, Histone deacetylase 11 (Homo sapiens) (UniProt Q96DB2).
T4 sequence (whole entry): T2 sequence (Q96DB2 whole entry)
The experiment in a line: Inhibition of HDAC11 in human U-937 cells assessed as increase in SHMT2 fatty acylation level in presence of Alk14 at 100 uM incubated for 6 hrs by Western blot analysis. The test is classed as cell-based. For orientation: Immunoblotting shows a protein as a band on a membrane.

Another test has as its target Histone deacetylase 4 (Homo sapiens, UniProt P56524). The test is described as follows: Inhibition of N-terminal GST-tagged C-terminal His-tagged human HDAC4 (627 to 1084 end residues) expressed in baculovirus expression system in Sf9 cells using Boc-Lys-(trifluoroacetyl)-AMC as substrate preincubated with enzyme for 1 hr followed by substrate addition and measured after 30 mins by fluorescence analysis.

In test [9] the test system is U-937. The test is described as follows: Induction of ferroptosis in human U-937 cells assessed as increase in lipid peroxidation accumulation at 100 uM incubated for 48 hrs by C11-BODIPY 581/591 staining based flow cytometry analysis. The test is classed as functional, cell-based.
Another test addresses Histone deacetylase 1 (Homo sapiens, UniProt Q13547). The test is described as follows: Inhibition of C-terminal 6xHis/FLAG-tagged full length human recombinant HDAC1 (1 to 482 end residues) expressed in Sf9 cells using Boc-Lys-(acetyl)-AMC as substrate preincubated with enzyme for 1 hr followed by substrate addition and measured after 30 mins by fluorescence analysis.
Test [10] in a line: Antitumor activity against mouse MLL-AF9 cells allografted in female C57BL/6 mouse model assessed as GFP positive leukemic cells in peripheral blood at 50 mg/kg, ip administered once daily for 26 days by FITC staining based analysis (reference value: 30.6 %). The class given is functional. The following applies: time 26 day.
Test [11] can be described thus: Antitumor activity against mouse MLL-AF9 cells allografted in female C57BL/6 mouse model assessed as GFP positive leukemic cells in peripheral blood at 50 mg/kg, ip administered once daily for 32 days by FITC staining based analysis (reference value: 72.5 %). The class given is functional. The following applies: time 32 day.

Chain of Histone deacetylase 4 (P56524 whole entry): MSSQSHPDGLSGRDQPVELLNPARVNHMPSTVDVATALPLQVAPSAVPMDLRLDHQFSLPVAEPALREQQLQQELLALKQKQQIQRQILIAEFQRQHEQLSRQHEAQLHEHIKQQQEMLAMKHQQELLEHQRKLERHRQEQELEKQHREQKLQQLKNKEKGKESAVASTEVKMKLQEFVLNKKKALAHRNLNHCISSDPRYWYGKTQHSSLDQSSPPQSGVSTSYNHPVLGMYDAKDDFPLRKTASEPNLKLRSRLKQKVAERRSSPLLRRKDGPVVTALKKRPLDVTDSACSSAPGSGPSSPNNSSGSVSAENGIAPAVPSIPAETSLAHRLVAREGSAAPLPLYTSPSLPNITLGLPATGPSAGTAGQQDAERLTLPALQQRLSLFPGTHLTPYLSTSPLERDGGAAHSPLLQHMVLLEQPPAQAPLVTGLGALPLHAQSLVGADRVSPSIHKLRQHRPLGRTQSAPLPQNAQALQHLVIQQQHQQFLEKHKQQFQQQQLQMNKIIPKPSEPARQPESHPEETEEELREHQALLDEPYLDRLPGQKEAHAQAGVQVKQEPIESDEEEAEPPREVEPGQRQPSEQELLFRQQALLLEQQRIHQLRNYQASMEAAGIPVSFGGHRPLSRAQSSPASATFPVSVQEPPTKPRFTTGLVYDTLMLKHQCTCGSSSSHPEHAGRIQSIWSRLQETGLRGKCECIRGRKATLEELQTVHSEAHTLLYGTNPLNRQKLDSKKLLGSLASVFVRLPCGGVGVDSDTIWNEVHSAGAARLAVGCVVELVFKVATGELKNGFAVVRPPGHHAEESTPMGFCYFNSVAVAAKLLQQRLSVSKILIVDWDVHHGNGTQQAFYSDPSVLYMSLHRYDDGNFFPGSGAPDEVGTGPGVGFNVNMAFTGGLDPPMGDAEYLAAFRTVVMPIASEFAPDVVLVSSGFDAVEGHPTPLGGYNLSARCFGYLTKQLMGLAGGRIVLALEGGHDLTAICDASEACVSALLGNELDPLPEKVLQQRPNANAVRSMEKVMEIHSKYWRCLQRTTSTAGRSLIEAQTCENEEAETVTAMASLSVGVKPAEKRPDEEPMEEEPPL
Chain of Histone deacetylase 1 (Q13547 whole entry): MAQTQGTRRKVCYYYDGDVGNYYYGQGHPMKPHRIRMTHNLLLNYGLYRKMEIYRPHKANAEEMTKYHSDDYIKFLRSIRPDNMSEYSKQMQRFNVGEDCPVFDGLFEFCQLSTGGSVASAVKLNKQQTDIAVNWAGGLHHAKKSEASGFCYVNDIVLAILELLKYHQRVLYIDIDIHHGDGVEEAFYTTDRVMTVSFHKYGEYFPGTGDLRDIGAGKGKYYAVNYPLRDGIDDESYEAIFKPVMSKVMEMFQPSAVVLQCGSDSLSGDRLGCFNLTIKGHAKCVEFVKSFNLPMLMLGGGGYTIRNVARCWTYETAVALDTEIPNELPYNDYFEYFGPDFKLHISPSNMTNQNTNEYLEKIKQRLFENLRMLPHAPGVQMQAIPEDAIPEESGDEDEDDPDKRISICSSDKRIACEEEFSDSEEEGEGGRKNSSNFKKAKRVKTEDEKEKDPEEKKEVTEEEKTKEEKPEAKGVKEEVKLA

Consider `CCCCCCCCCCCCCCCCNNC(=O)c1cccs1`, for which the outcome in the test with OCI-AML-3, in the test on U-937 [1], in the test with OCI-AML2 [4], in the test on OCI-AML2 [5], in the test on U-937 [6] and in the test with THP-1 was Active. The outcome in the test on U-937 [9] was Active. In addition, the IC50 (commonly the midpoint of a concentration-inhibition curve) in test [2] is 77.6 µM; in the test with OCI-AML2 [3], around 150 µM; at Histone deacetylase 11 it was 370 nM; in the test with U-937 [7] it was around 150 µM; at Histone deacetylase 8, above 100 µM; against Histone deacetylase 4, above 100 µM. For the same molecule, the IC50 on Histone deacetylase 1 is 92.5 µM. The inhibition result in [8] is “Active”.

`O=C(NO)c1cccc2[nH]c(C#Cc3ccccc3)cc12`: the IC50 against Histone deacetylase 4 was above 100 µM.

Take `Nc1ccn([C@@H]2O[C@H](CO)[C@@H](O)[C@@H]2O)c(=O)n1` [CYTARABINE]: the results for the Activity in test [10] and in test [11] were 5.81% and 13.2%, respectively.
